According to patent publication US20210010089A1, “TUMOR MINIMAL RESIDUAL DISEASE STRATIFICATION” (VIB VZW, priority 2018, published 2021):

What was measured:
[1] = system: GFRA2-positive MEL006 cells; test: FACS of GFRA2-positive cells (NDTCs) in MEL006 cultures
Protocol: Cells were resuspended in FACS sorting buffer (culture medium supplied with 1% EDTA 100 mM).

[2] = system: MM052 melanoma cells; test: Colony assay and Cell Titer Glo assay in short culture melanoma line
Protocol: Cells were grown to near confluency on 12well plates and treated with the indicated drug combinations for the indicated time period.
2500 cells were plated onto a 96well plate and treated with the indicated drug combinations for the indicated time period. Cell Titer Glo assay was performed according to the manufacturer's instruction (Promega) and luminescence was measured on a VictorX3 (Perkin Elmer).

[3] = system: RAR; settings: pan-RXR agonist; cited from earlier work
[4] = system: wild-type cells (MM163); test: GFRA2 expression (RT-qPCR) in short-term melanoma culture; format: cell-based, human; settings: triple wild-type culture exposed to both trametinib and bexarotene
Source text: C) wild-type cells (MM163).

[5] = system: NRAS-mutant cells (MM165); test: as above; settings: NRAS-mutant culture exposed to both trametinib and bexarotene
Source text: Cells resuspended in QiAzol using an miRNeasy Kit and processed according to the manufacturer's instructions (QIAGEN) or in RA1lysis buffer using the RNA NucleoSpin extraction kit (Macherey&Nagel).
Data processing with qbase+2.6 software (Biogazelle) relies on normalization with a minimum of 2 reference genes, indicated as RefGen below.

[6] = system: MRD subpopulation gene signatures; test: Analysis of available RNASeq data of melanoma patients on immunotherapy (Riaz et al. 2017); parameters: species or system human; settings: patient subgroups SD+PD versus CR+PR; results not shown
Source text: Although the therapy selecting for these 4 MRD-stage subpopulations as applied in the Examples herein relies on combined inhibition of BRAF and MEK kinases, it can be envisaged that other therapeutic modalities also give rise to the emergence of the same or some of these 4 MRD-stage subpopulations. […] Likewise, targeted therapies of cancers other than melanoma can lead to a MRD phase during which one or more of the MRD subpopulations as identified herein for melanoma are present. Such targeted therapies include e.g. anti-VEGF (bevacizumab), anti-EGFR (cetuximab, erlotinib), mTOR inhibition (everolimus), Tyr-kinase inhibitor/anti-EGFR (gefitinib), Tyr-kinase inhibition/BCR-ABL inhibition (imatinib), anti-HER2/anti-EGFR (lapatinib), and Tyr-kinase inhibition (sorafenib, sunitinib). On the one hand, as described above, different therapies targeting melanoma can be expected to induce all or part of the minimal residual disease tumor subpopulations as described herein. On the other hand, it can be envisaged that inhibition of the MAPK-pathway (with BRAF and/or MEK inhibitors) is inducing in cancers or tumors different from melanoma one or more minimal residual disease tumor subpopulations as described herein for melanoma.

Compound: CN1c2ccc([N+](=O)[O-])cc2N=C(c2ccc(C(=O)O)cc2)c2cc3c(cc21)C(C)(C)CCC3(C)C [HX531]
- drug-dependent induction of GFRA2-positive cells ([1]; in presence of IC50 concentrations of the BRAF and MEK-inhibitors): completely inhibited emergence of drug-dependent induction of GFRA2-positive cells
- effect on sensitivity of MM52 cells to trametinib ([2]; HX531 2 uM, trametinib 2 nM, colony assay 7 days, Cell Titer Glo 6 days): sensitized these cells to trametinib

Compound: CN(c1ncccc1CNc1nc(Nc2ccc3c(c2)CC(=O)N3)ncc1C(F)(F)F)S(C)(=O)=O [PF-562271]
- drug-dependent emergence of the GFRA2-high cell population ([1]; FAK inhibitor added to DT-treated MEL006 cells): diminished the drug-dependent emergence of the GFRA2-high cell population in a dose-dependent manner

Compound: CC1(C)CCC(C)(C)c2cc(C3(c4ccc(C(=O)O)cc4)OCCO3)ccc21 [SR 11237]
- RAR activity [3]: devoid of any RAR activity

Compound: C=C(c1ccc(C(=O)O)cc1)c1cc2c(cc1C)C(C)(C)CCC2(C)C [bexarotene]
- GFRA2 expression levels [4]: increase
- GFRA2 expression levels [5]: increase
- effect on sensitivity to a combination of trametinib/FAK-inhibitors ([2]; MM52 cells): increased the sensitivity
- long-term growth inhibition ([2]; MM52 culture, compound alone): did not induce measurable long-term growth inhibition
- cells in which cell death occurred ([2]; bexarotene with trametinib/FAK-inhibitors, after 3 days of treatment (data not shown)): ~100%
- effect on sensitivity of MM52 cells to trametinib ([2]; concentrations as low as 10 nM): significantly decreased the sensitivity

Compound: nivolumab: PD-1 inhibitor
- induction of MRD subpopulations (trend) [6]: induce at least the pigmented state and MITFmedium-hypometabolic state MRD subpopulations
